US20100016262A1, “Compositions and methods for reducing hepatotoxicity associated with drug administration and treating non-alcoholic fatty liver disease, non-alcoholic steatohepatitis and associated cirrhosis” (YALE UNIVERSITY, priority 2007, published 2010)
“Also recorded” adds a separate entry of the source.

Legend:
NALP3 inflammasome = molecular target: T1, NALP3 inflammasome (Mus musculus, UniProt Q8R4B8); assay: Uric acid (MSU crystal) peritonitis, model of NALP3 inflammasome activation; assay type: in vivo; settings: low dose aspirin (60 mg/l) in drinking water for three days before MSU 3 mg/mouse ip; lavage after 3 hours; P<0.0001
T1 construct: endogenous in cells; host or cells: living C57BL/6 wild-type mice (peritoneal cavity, in vivo)
T1 sequence (Q8R4B8 whole entry): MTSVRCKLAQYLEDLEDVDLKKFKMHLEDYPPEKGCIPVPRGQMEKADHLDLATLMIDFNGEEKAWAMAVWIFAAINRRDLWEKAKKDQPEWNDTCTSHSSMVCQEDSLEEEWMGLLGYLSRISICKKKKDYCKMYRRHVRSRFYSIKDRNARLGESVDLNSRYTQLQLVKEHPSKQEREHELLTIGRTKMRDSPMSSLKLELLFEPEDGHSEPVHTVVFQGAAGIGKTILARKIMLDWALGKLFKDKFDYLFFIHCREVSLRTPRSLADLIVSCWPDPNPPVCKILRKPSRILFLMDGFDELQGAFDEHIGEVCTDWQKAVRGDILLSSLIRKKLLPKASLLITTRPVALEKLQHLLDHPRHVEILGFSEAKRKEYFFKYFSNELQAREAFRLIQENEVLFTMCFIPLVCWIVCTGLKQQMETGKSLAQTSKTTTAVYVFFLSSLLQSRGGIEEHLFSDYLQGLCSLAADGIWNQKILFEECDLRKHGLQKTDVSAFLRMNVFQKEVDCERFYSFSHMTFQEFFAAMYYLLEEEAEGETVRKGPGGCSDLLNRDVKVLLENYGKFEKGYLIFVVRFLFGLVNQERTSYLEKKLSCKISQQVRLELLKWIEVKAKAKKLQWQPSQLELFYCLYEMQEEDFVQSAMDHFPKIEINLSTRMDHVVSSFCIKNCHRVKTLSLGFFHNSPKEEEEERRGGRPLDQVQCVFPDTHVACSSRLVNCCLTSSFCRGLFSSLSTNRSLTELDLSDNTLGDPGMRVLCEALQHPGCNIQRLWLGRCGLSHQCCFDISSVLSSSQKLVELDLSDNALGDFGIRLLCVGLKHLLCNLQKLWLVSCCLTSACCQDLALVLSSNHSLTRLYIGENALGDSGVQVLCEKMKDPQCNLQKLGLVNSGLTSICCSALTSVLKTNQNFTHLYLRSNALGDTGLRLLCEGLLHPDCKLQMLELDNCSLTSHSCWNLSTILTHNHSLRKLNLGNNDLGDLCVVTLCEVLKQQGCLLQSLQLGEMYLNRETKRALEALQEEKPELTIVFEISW
Description: • Animals. C57BL/6 mice were purchased from commercial sources. NALP3 −/−, IL-18 −/− ASC −/−, IPAF −/− and TLR9−/− mice were backcrossed nine generations onto the C57BL/6 background. Caspase 1 −/− mice were backcrossed 5-6 generations onto the C57BL/6 background. These mice have been described previously(39, 40). IL-1β was neutralized in by using the anti-IL-1β antibody from clone B 122 (a gift of R. Schreiber, Washington University) at a dose of 0.2 mg/mouse iv twice a day for a total of 48 hours after giving APAP. Control mice received Armenian hamster isotype control antibody. For survival experiments animals were euthanized when they became moribund using criteria of lack of response to stimuli or lack of righting reflex. Animal protocols were approved by the Yale University animal care and use committee. [include references for IPAF−/− (M. Lara-Tejero et al. JEM 2006) and IL-18−/−. Need to add TLR9−/− and TLR3−/−] • Acetaminophen induced hepatotoxicity. APAP (Sigma, MO) solution was made fresh for each experiment in PBS at 20 mg/ml and heated in a water bath to 55° C. to dissolve. APAP was dosed at 500 mg/kg and injected I.P after 15 hrs of starvation. […] Neutrophil infiltration was evaluated by flow cytometry. […]

wild-type mice = assay: Acetaminophen (APAP) induced hepatotoxicity in mice (500 mg/kg ip); assay type: in vivo, mouse
Description: • Animals. C57BL/6 mice were purchased from commercial sources. NALP3 −/−, IL-18 −/− ASC −/−, IPAF −/− and TLR9−/− mice were backcrossed nine generations onto the C57BL/6 background. Caspase 1 −/− mice were backcrossed 5-6 generations onto the C57BL/6 background. These mice have been described previously(39, 40). IL-1β was neutralized in by using the anti-IL-1β antibody from clone B 122 (a gift of R. Schreiber, Washington University) at a dose of 0.2 mg/mouse iv twice a day for a total of 48 hours after giving APAP. Control mice received Armenian hamster isotype control antibody. For survival experiments animals were euthanized when they became moribund using criteria of lack of response to stimuli or lack of righting reflex. Animal protocols were approved by the Yale University animal care and use committee. [include references for IPAF−/− (M. Lara-Tejero et al. JEM 2006) and IL-18−/−. Need to add TLR9−/− and TLR3−/−] • Acetaminophen induced hepatotoxicity. APAP (Sigma, MO) solution was made fresh for each experiment in PBS at 20 mg/ml and heated in a water bath to 55° C. to dissolve. APAP was dosed at 500 mg/kg and injected I.P after 15 hrs of starvation. Animals were euthanized by ketamine/xylazine injection at 12 hours for collection of serum, isolation of liver lymphocytes or collection of liver tissue for histology, or they were observed every four hours for 72 hours until they reached criteria for euthanasia (lack of response to stimuli or lack of righting reflex). • Aspirin/clopidogrel/SC-560. Aspirin (Sigma, MO) was made fresh for each experiment. For dosing prior to APAP it was dissolved in single deionized water at 60 mg/l and heated to 42° C. with rapid stirring to dissolve, then rapidly placed in an ice water bath to cool. Aspirin in water was given to the mice 60-72 hours prior to APAP injection. Assuming water consumption of 3-5 ml per day this dose would be equivalent to a 300-500 mg dose in an 80 kg adult human. For co-administration of APAP and aspirin, aspirin was gavaged at a dose of 6 mg/kg in a volume of 100 ul of water immediately after ip injection of APAP. Clopidogrel (Gilead Pharmaceuticals, CA.) was dissolved in PBS at 6 mg/ml and administered by gavage of 100 ul, 30 mg/kg, every 24 hours beginning 48 hours prior and ending 24 hours after APAP injection. Cox-1 inhibitor (SC-560). SC-560 (Cayman chemical, MI) was dissolved at 50 mg/ml in DMSO and further dissolved in PBS in order to gavage a dose of 5 mg/kg in 100 ul. It was administered twice per day beginning 60 hours prior to Tylenol and continued for 48 hours after APAP injection as previously established(41). • Uric Acid Peritonitis. Peritonitis was induced with uric acid crystals as previously described by injecting 3 mg of MSU intraperitoneally per mouse(27). Three hours after injection peritoneal lavage was performed on mice euthanized by isoflurane inhalation. Neutrophil infiltration was evaluated by flow cytometry. The percent of Gr-1 (BD Pharmingen, CA) positive cells was multiplied by the total cell counts. • Liver sinusoidal endothelial cell (LSEC) isolation. After in-situ pronase digestion the non-parenchymal cell suspension is centrifuged for 5 min at 100 g to remove most of the parenchymal cells. This process is repeated until no pellet is observed. The supernatant enriched in LSEC is centrifuged for 10 min at 350 g. The pellet is resuspended in PBS and centrifuged for 10 min at 350 g. The cells are resuspended in PBS and layered (3.3 ml) on the top of two-step percoll gradient (put the 5 ml of 50% percoll at the bottom and put the 6.6 ml of 25% percoll at the top). The gradients are centrifuged at 900 g for 20 min and the intermediate layer included LSEC is collected and cultured in the media (EGM™-2 MV—Microvascular Endothelial Cell Medium-2, CAMBREX, Charles City, Iowa). • ODN2088 and IRS 954 injection.

THP1 cells = assay: LPS stimulation of THP1 cells, real-time PCR for pro-IL-1β; assay type: cell-based, human; settings: overnight with aspirin (1.5 mM, 0.15 mM), then LPS 10 μg/ml for 8 hours; P<0.05
mice and rats = settings: aspirin 200-600 mg/kg, dose range toxic to humans; cited from earlier work
[1] = aspirin pre-treatment, 12 hours after APAP, p<0.03
[2] = aspirin treatment, after APAP, p<0.005

Structure (SMILES): CC(=O)Oc1ccccc1C(=O)O [aspirin, acetylsalicylic acid]
- neutrophil exudates (Gr-1 positive neutrophils in peritoneal lavage) (NALP3 inflammasome): eightfold reduction
- serum IL-1β levels (ELISA) (wild-type mice; ASA in drinking water, after APAP, p<0.02): significant reduction
- survival after APAP (wild-type mice; aspirin 60 mg/l in drinking water for 3 days before APAP 500 mg/kg ip, n=17 vs control n=13, P<0.02): markedly improved survival
- survival (wild-type mice; aspirin given concordantly with APAP, 6 mg/kg by gavage immediately after APAP, control 22% ±19%, P<0.04): 43% ±11%
- liver histology (H&E), liver injury and hemorrhage (wild-type mice; aspirin in drinking water for three days before APAP, 12 hours after APAP): markedly improved; also recorded: significant reduction in APAP induced liver injury and hemorrhage
- pro-IL-1β message, whole liver (real-time PCR) (wild-type mice; [1]): reduced to normal levels
- pro-IL-18 message, whole liver (real-time PCR) (wild-type mice; [1]): reduced to normal levels
- serum ALT (wild-type mice; aspirin pre-treatment, 12 hrs after APAP, P<0.04): significantly lower
- IFN-γ expression, whole liver (real-time PCR) (wild-type mice; [2]): reduced
- TNF-α expression, whole liver (real-time PCR) (wild-type mice; [2]): reduced
- pro-IL-1β transcript up-regulation by LPS (THP1 cells): reduced
- liver injury from APAP (mice and rats): reduce liver injury
- survival from APAP (mice and rats): not improve survival

Structure (SMILES): COC(=O)[C@H](c1ccccc1Cl)N1CCc2sccc2C1 [clopidogrel]
- survival after APAP (protection against APAP toxicity) (wild-type mice; clopidogrel 30 mg/kg gavage every 24 hrs from 48 hours before to 24 hours after APAP, n=15 vs PBS n=15, P<0.31): did not protect

Structure (SMILES): COc1ccc(-n2nc(C(F)(F)F)cc2-c2ccc(Cl)cc2)cc1 [SC-560]
- survival after APAP (protection against APAP toxicity) (wild-type mice; SC-560 5 mg/kg gavage twice daily from 60 hours before to 48 hours after APAP, n=10 vs PBS n=10, P<0.97): did not protect
